Entries after “also recorded” stand apart in the source; their conditions may differ.
How the values were obtained:
[1] = tested on: human umbilical vein endothelial cells (HUVECs); assay: HUVEC proliferation assay (WST-1), 3-day, 2,000 cells per well; assay type: cell-based; conditions: 3-day assay; for anti-proliferative activity in words: overall; for anti-proliferative activity (maximum or stated level), scaled so that TNP-470 = 100%: 0.01-30 μg/ml; for anti-proliferative activity in words at high peptide concentration: high/highest applied concentration (30 μg/ml where stated)
Method: In addition to the 2 and 4 day proliferation experiment where 5,000 cells per well were seeded, the effects of the peptides on the proliferating ability of HUVECs were also studied using cells seeded at a density of 2,000 cells per well. This lower cell seeding density allowed the experiment to be extend for an additional day without changing the cell medium. The effects of the peptides when applied to the cells for 3 consecutive days is also reported herein. The proliferation assay again involved two steps. During the first step 2,000 cells per well for a 96-well plate were seeded without any extracellular matrix substrate on the wells overnight (8 hours). The initial cell culture medium was removed using a multichannel pipetor. To synchronize the cells, the cells were serum starved for 4 hours and the candidate peptides were applied. During serum starvation the cell culture medium was changed from a “full” medium to the “basal” medium, which contained no growth factors or serum. Serum starvation for 4 hours had no effect on the proliferation of the cells. For this assay, the logarithmic scale of four different concentrations of 0.01 μg/ml, 0.1 μg/ml, 1 μg/ml and 10 μg/ml of peptide was used. In addition, a larger concentration of 30 μg/ml peptide was also applied. Each of the concentrations was again tested in quadruplicate. After the third day of peptide application the WST-1 dye was applied for approximately 2 to 4 hours (usually after 3 hours the color saturates). The proliferation was later tested on the ELISA plate reader as described for the 2 and 4 day assay. Note that the 2- and 4-day and the 3-day protocols differed in that 5,000 cells/well versus 2,000 cells/well seeded, respectively.

[2] = tested on: human umbilical vein endothelial cells (HUVECs); assay: HUVEC proliferation assay (WST-1), 2- and 4-day, 5,000 cells per well; assay type: cell-based; conditions: for concentration-response profile in words: 2- and/or 4-day assay
Method: The effect of the various peptides on cell proliferation was assayed, by administering the peptides to human umbilical vein endothelial cells (HUVECs) in culture. 45 peptides belonging to four distinct families of proteins including the thrombospondin-1 containing proteins, the C-X-C chemokines, collagen derived peptides and peptides from tissue inhibitors of metalloproteinases were tested. The potency of each of the peptides was tested using the proliferation assay at 2 days and 4 days following administration of the peptides and a similar assay using a different cell density at 3 days. In the four-day experiments, the cell medium was changed after the second day of incubation and the peptide was replaced at the initial concentration together with the medium. TNP-470 is an antiangiogenic compound that was used as a positive control for assessing anti-angiogenic efficacy. The activity of each polypeptide was, therefore, expressed as a percentage of TNP-470 activity, i.e., the optical density obtained experimentally is scaled such that the negative control is 0% and the positive control is 100% as explained below (FIG. 4). Each plate included a well having HUVEC cells that received 0.1 μg/ml TNP-470. For example, a peptide having the same effect on endothelial cell proliferation would have 100% of the activity of TNP-470. Note that activity could exceed 100%. In this assay, the effects of the predicted anti-angiogenic fragments on the ability of HUVECs to proliferate was characterized. […] A commonly used methodology to test for proliferation is to monitor the viability and metabolic activity of endothelial cells, in the presence of the anti-angiogenic fragments at different concentrations and various time steps. The cell proliferation reagent WST-1 was used as a substrate/assay to measure the metabolic activity of viable cells. WST-1 is a colorimetric, non-radioactive assay and can be performed in a microplate. It is suitable for measuring cell proliferation, cell viability or cytotoxicity. The assay is based on the reduction a red tetrazolium salt, WST-1, by viable, metabolically active, cells to form the yellow formazan crystals soluble in the cell medium. […] The cells are cultured described above. Once cells have reached 80% confluence they are trypsinized and resuspended in EGM-2. The cell density is estimated using a hemocytometer. All of the endothelial cells used were from passage 4 to passage 8. The proliferation assay involved two steps. During the first step the cells, approximately 5,000 cells per well for a 96-well plate, were seeded without any extracellular matrix substrate on the wells overnight (8 hours). The initial cell culture medium was removed using a multichannel pipetor and the candidate peptides were applied. A logarithmic scale of four different concentrations of 0.01 μg/ml, 0.1 μg/ml, 1 μg/ml and 10 μg/ml of each peptide was used. Each of the concentrations was tested in quadruplicate. The viability of the cells was challenged at 2 and 4 days upon the application of the peptide. As a positive control for decreased viability, 0.1 μg/ml of TNP-470 (O-(chloro-acetyl-carbamoyl) fumagillol, a synthetic analogue of fumagillin; TNP-470 was provided by NCI, was provided along with the medium, and as a negative control for normal viability, the cells were cultured without the addition of any agent. The cells were then incubated with 10 μl per well of the red WST-1 reagent for approximately 2 to 4 hours. During this incubation period, viable cells converted, in their mitochondria, the red WST-1 to the yellow formazan crystals which dissolve in the medium. The second step of the assay involved the quantification of the changes in proliferation which was performed by measuring the change in color after lysing the cells. The samples were read using the ELISA plate reader Victor3 V (Perkin Elmer) at a wavelength of […]. The amount of color produced is directly proportional to the number of viable cells. […]

[3] = 4 days of peptide application, 0.01-10 μg/ml
[4] = 10 μg/ml peptide, 2- and 4-day assay
[5] = 2- and 4-day assay, day not specified or constant throughout the four days
[6] = 2 days of peptide application, 0.01-10 μg/ml
[7] = 2- and 4-day assay, day not specified

AAPFLECQGRQGTCHFFAN [SEQ ID NO: 87, α4CIV CAA56943.1: 1628-1646]
concentration-response profile in words [1]: activity increased with increasing the applied peptide concentration | anti-proliferative activity in words [1]: similar | anti-proliferative activity in words ([2]; 2 days of peptide application): intermediate activity

ASWSACSVSCGGGARQRTR [SEQ ID NO: 45, Fibulin-6 CAC37630.1: 1745-1763]
concentration-response profile in words [1]: biphasic response | peptide concentration at which maximum activity was observed [1]: 0.1 µg/mL | anti-proliferative activity (maximum or stated level), scaled so that TNP-470 = 100% [1]: 20% | concentration-response profile in words [2]: biphasic activity | peptide concentration at which maximum activity was observed ([2]; 2 days): 0.1 µg/mL | anti-proliferative activity (maximum or stated level), scaled so that TNP-470 = 100% [2, 3]: approximately 30%

DGRELCLDPKENWVQRVVEKFLK [SEQ ID NO: 110, IL-8/CXCL8 AAP35730.1: 72-94]
anti-proliferative activity in words at high peptide concentration [1]: higher | anti-proliferative activity, TNP-470 = 100% [2, 4]: 20%

DGRKICLDPDAPRIKKIVQKKL [SEQ ID NO: 114, THBG-β/CXCL7 AAB46877.1: 100-121]
anti-proliferative activity, TNP-470 = 100% [2, 4]: 15%

ECLWTDMLSNFGYPGYQSKHYACI [SEQ ID NO: 155, TIMP 3 AAA21815.1: 148-171]
anti-proliferative activity (maximum or stated level), scaled so that TNP-470 = 100% [2, 5]: 30% | anti-proliferative activity (maximum or stated level), scaled so that TNP-470 = 100% [2, 6]: 30%

GPWAPCSASCGGGSQSRS [SEQ ID NO: 48, Papilin NP_775733.2: 342-359]
anti-proliferative activity (maximum or stated level), scaled so that TNP-470 = 100% [2, 5]: 30%

GPWEDCSVSCGGGEQLRSR [SEQ ID NO: 63, SCO-spondin XP_379967.2: 3781-3799]
anti-proliferative activity (maximum or stated level), scaled so that TNP-470 = 100% [1]: 25% | anti-proliferative activity (maximum or stated level), scaled so that TNP-470 = 100% [2, 5]: ~15% | anti-proliferative activity in words ([2]; 2- and 4-day assay, overall): low anti-proliferative activity

GPWEPCSVTCSKGTRTRRR [SEQ ID NO: 49, Properdin AAP43692.1: 143-161]
anti-proliferative activity in words at high peptide concentration [1]: significantly increased | peptide concentration at which maximum activity was observed [2, 7]: 0.01 µg/mL | anti-proliferative activity (maximum or stated level), scaled so that TNP-470 = 100% [2, 5]: 30% | concentration-response profile in words [2]: biphasic response | anti-proliferative activity (maximum or stated level), scaled so that TNP-470 = 100% [2, 3]: 20%

GPWERCTAQCGGGIQARRR [SEQ ID NO: 60, Semaphorin 5A NP_003957.1: 660-678]
anti-proliferative activity (maximum or stated level), scaled so that TNP-470 = 100% [1]: 35% | peptide concentration at which maximum activity was observed [2, 7]: higher than 1 μg/ml | anti-proliferative activity (maximum or stated level), scaled so that TNP-470 = 100% [2, 5]: 25% | anti-proliferative activity in words ([2]; 2 days of peptide application): minimum anti-proliferative activity | anti-proliferative activity in words ([2]; 4 days of peptide application): intermediate activity

GPWGDCSRTCGGGVQFSSR [SEQ ID NO: 7, ADAMTS-4 CAH72146.1: 527-545]
peptide concentration at which maximum activity was observed ([2]; 4 days): 10 µg/mL | anti-proliferative activity (maximum or stated level), scaled so that TNP-470 = 100% [2, 3]: 35%

GPWGECSRTCGGGVQFSHR [SEQ ID NO: 14, ADAMTS-8 Q9UP79: 534-552]
concentration-response profile in words [1]: biphasic response | anti-proliferative activity in words at 10 μg/ml [2, 4]: reduced | concentration-response profile in words [2]: biphasic response | peptide concentration at which maximum activity was observed ([2]; 2 days): 1 µg/mL | anti-proliferative activity (maximum or stated level), scaled so that TNP-470 = 100% [2, 6]: 35% | peptide concentration at which maximum activity was observed ([2]; 4 days): 1 µg/mL | anti-proliferative activity (maximum or stated level), scaled so that TNP-470 = 100% [2, 3]: 30%

KCHGHGVCNSNKN [SEQ ID NO: 1, ADAM-9 Q13443: 649-661]
anti-proliferative activity (maximum or stated level), scaled so that TNP-470 = 100% [2, 5]: ~20%

LCMTKSDCYQPAWYIHEGFYNLSG [SEQ ID NO: 159, reference compound]
anti-proliferative activity in words ([2]; 2- and 4-day assay, overall): not statistically significant

LRRFSTMPFMFCNINNVCNF [SEQ ID NO: 89, α5CIV AAC27816.1: 1510-1529]
anti-proliferative activity in words at high peptide concentration [1]: increased even more | anti-proliferative activity in words [1]: reproducible | anti-proliferative activity, TNP-470 = 100% [2, 4]: 80%

MQCHGRGVCNNRKN [SEQ ID NO: 2, ADAM-12 O43184: 662-675]
concentration-response profile in words [1]: activity increasing as the peptide concentration increased | anti-proliferative activity in words ([2]; 2 days of peptide application): showed activity

NGKEICLDPEAPFLKKVIQKILD [SEQ ID NO: 95, ENA-78/CXCL5 AAP35453.1: 86-108]
anti-proliferative activity in words at high peptide concentration [1]: high activity | anti-proliferative activity in words [1]: reproducible over all tested concentrations | anti-proliferative activity, TNP-470 = 100% ([2]; 0.01 μg/ml peptide, 2 days): approximately 30%

NGKKACLNPASPMVQKIIEKIL [SEQ ID NO: 106, GRO-γ/MIP-2β/CXCL3 AAA63184.1: 79-100]
peptide concentration at which maximum activity was observed [1]: 0.01 µg/mL | peptide concentration at which maximum activity was observed [2, 7]: 0.01 µg/mL | anti-proliferative activity (maximum or stated level), scaled so that TNP-470 = 100% [2, 3]: 15%

NGKQVCLDPEAPFLKKVIQKILDS [SEQ ID NO: 98, GCP-2/CXCL6 AAH13744.1: 86-109]
concentration-response profile in words [1]: biphasic behavior | anti-proliferative activity in words at high peptide concentration [1]: increased | anti-proliferative activity, TNP-470 = 100% ([2]; 0.01 μg/ml peptide, 2 days): 30% | anti-proliferative activity in words at 10 μg/ml [2, 4]: Virtually no anti-proliferative activity | anti-proliferative activity (maximum or stated level), scaled so that TNP-470 = 100% [2, 5]: 35% | concentration-response profile in words [2]: biphasic behavior; also recorded: biphasic response

NGRKACLNPASPIVKKIIEKMLNS [SEQ ID NO: 102, GRO-α/CXCL1 AAP35526.1: 80-103]
anti-proliferative activity in words at high peptide concentration [1]: significantly increased | anti-proliferative activity in words at 10 μg/ml [2, 4]: statistically insignificant | anti-proliferative activity (maximum or stated level), scaled so that TNP-470 = 100% [2, 5]: 15%

QDVFNKDGKVILLSPQAICLPKEK [SEQ ID NO: 158, reference compound]
anti-proliferative activity in words ([2]; 2- and 4-day assay, overall): not statistically significant

QPWGTCSESCGKGTQTRAR [SEQ ID NO: 44, Fibulin-6 CAC37630.1: 1688-1706]
concentration-response profile in words [1]: activity increased with increasing peptide concentration | concentration-response profile in words [2]: biphasic behavior | peptide concentration at which maximum activity was observed ([2]; 4 days): 0.01 µg/mL | anti-proliferative activity (maximum or stated level), scaled so that TNP-470 = 100% [2, 3]: ~40%

SPWTKCSATCGGGHYMRTR [SEQ ID NO: 61, Semaphorin 5A NP_003957.1: 848-866]
anti-proliferative activity in words ([2]; 2- and 4-day assay, overall): no anti-proliferative activity

SQWSPCSRTCGGGVSFRER [SEQ ID NO: 47, Papilin NP_775733.2: 33-51]
anti-proliferative activity in words ([2]; 2- and 4-day assay, overall): minimal anti-proliferative activity

TSWSPCSASCGGGHYQRTR [SEQ ID NO: 62, Semaphorin 5B AAQ88491.1: 916-934]
anti-proliferative activity (maximum or stated level), scaled so that TNP-470 = 100% [2, 5]: 10%
